These results are taken from patent US20240417393A1, “CERTAIN 2,5-DIAZABICYCLO[4.2.0]OCTANES AS GLP-1 RECEPTOR MODULATORS” (ASTRAZENECA AB, priority 2021, published 2024).

SMILES strings stand for the structures.

In one assay the target is T1, human GLP-1R receptor (Homo sapiens, UniProt P43220, L260F).
T1 construct: expressed in transfected cells; host or cells: CHO-K1 (ATCC CCL-61)
The experiment in a line: CHOK1 GLP-1R cAMP Assay (HTRF). Particulars: CHO-K1 cells stably expressing human GLP-1R (Leu260Phe variant), 20 min at rt. The assay is classed as cell-based. On the technique in general: Time-resolved FRET reads energy transfer from a long-lived donor to a nearby acceptor.

For assay [1], the target named is T2, GLP-1R in a pancreatic insulinoma cell line (EndoC-PH1) (Homo sapiens, UniProt P43220).
T2 construct: host or cells: EndoC-βH1 human pancreatic beta cell line
The assay can be described thus: EndoC cAMP Accumulation Assay (HTRF). Type of assay: cell-based. Particulars: EndoC-PH1 human pancreatic beta cell line, endogenous GLP-1R, 30 min at rt. The procedure, abridged:
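Thawed human EndoC-βH1 cells, about 3000 per well, stimulated with compound 30 min at room temperature in HBSS/HEPES pH 7.4 with 0.1% BSA and 0.5 mM IBMX; cAMP by competitive HTRF. Responses as % activation relative to maximal GIP (82.5 nM), 4-parameter logistic fit.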

Assay [2] concerns the target T3, human phosphodiesterase-3A (Homo sapiens, UniProt Q14432).
T3 construct: host or cells: Sf9 (Spodoptera frugiperda) cells
The assay can be described thus: PDE3 Assay ([3H]cAMP to 5'AMP, SPA). The note with it: human recombinant PDE3A expressed in Sf9 cells; 450 nM cAMP; 20 min at 22° C. Type of assay: biochemical. Here is the method:
Evaluation of the effects of compounds on the activity of the human phosphodiesterase-3A is quantified by measuring the formation of 5′AMP from cAMP using a human recombinant is enzyme expressed in a clonal isolate of Spodoptera frugiperda cells (Sf9) cells.
The test compound, reference compound or water (control) are added to a buffer containing 40 mM tris(hydroxymethyl)aminomethane (Tris)/HCl (pH 7.4) and 8 mM MgCl2, 450 nMcAMP and 0.25 μCi [^3H]cAMP.
Thereafter, the reaction is initiated by addition of the enzyme (about 1U) and the mixture is incubated for 20 min at 22° C.
For basal control measurements, the enzyme is omitted from the reaction mixture.
Following incubation SPA beads are added. After 30 min at 22° C. under shaking, the amount of [^3H]5′AMP is quantified with a scintillation counter (Topcount, Packard).
The results are expressed as a percent inhibition of the control enzyme activity. The standard inhibitory reference compound is milrinone (CAS number 78415-72-2), which is tested in each experiment at several concentrations to obtain an inhibition curve from which its IC50 value is calculated.

T3 sequence (Q14432 whole entry): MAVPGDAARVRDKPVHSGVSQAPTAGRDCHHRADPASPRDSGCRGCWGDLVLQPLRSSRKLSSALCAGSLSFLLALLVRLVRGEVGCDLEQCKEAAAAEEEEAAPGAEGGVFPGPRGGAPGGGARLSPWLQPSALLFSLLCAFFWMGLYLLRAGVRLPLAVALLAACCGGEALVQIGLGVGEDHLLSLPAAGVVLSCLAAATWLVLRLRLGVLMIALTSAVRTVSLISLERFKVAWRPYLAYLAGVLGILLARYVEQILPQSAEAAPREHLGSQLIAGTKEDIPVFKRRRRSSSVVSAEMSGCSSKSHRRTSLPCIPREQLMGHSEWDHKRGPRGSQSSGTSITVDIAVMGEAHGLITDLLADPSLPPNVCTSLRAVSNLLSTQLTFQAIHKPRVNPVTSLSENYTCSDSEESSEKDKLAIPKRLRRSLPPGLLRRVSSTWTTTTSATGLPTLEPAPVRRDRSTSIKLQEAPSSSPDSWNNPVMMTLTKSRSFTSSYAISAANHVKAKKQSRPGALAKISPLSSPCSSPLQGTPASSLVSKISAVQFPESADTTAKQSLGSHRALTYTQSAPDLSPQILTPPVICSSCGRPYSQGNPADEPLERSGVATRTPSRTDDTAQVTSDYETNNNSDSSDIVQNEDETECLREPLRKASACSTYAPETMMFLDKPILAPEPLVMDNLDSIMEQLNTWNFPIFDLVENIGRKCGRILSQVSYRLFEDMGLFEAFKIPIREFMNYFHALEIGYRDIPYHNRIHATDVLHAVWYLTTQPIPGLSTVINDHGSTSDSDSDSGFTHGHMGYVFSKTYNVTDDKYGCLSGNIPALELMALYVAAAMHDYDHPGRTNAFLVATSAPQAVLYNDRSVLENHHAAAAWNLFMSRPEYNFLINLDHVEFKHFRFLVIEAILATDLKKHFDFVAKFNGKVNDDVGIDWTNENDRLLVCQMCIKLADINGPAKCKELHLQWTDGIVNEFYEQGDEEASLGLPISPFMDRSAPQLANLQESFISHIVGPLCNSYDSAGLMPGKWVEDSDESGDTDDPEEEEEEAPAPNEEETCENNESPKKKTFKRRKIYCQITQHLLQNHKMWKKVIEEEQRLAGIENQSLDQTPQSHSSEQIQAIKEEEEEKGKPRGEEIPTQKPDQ
T2 sequence (P43220 24-463): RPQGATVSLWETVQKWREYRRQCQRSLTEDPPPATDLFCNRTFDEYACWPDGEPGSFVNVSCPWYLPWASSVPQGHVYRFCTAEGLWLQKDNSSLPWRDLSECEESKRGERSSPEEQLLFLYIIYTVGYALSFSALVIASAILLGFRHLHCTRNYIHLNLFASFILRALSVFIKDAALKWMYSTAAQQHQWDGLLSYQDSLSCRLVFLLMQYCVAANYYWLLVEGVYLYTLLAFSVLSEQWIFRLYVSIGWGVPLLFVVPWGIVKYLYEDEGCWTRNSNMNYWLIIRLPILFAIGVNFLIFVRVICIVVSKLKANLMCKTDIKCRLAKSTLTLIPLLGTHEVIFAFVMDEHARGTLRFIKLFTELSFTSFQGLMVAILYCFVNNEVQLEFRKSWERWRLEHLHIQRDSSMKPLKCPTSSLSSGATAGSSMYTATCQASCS
T1 sequence (P43220 24-463 L260F): as the sequence (P43220 24-463) above, with L237F counted along it

As to `C[C@]1(c2ccc(Cl)cc2F)Oc2cccc(N3CCN(Cc4nc5c(F)cc(C(=O)O)cc5n4C[C@@H]4CCO4)[C@H]4CC[C@H]43)c2O1` (single isomer, unassigned) [Example 9b], the figures for the EC50 (at human GLP-1R receptor; in assay [1]) were 0.8 nM and 3.3 nM, respectively. Also, the half-inhibitory concentration (IC50) in assay [2] is over 100000 nM.
In the case of `COc1cc(C(=O)O)cc2c1nc(CN1CCN(c3cccc4c3O[C@@](C)(c3ccc(Cl)cn3)O4)[C@H]3CC[C@@H]31)n2C[C@@H]1CCO1` (single isomer, unassigned) [Example 6a, 2-(((1R*,6R*)-5-((R*)-2-(5-Chloropyridin-2-yl)-2-methylbenzo[d][1,3]dioxol-4-yl)-2,5-diazabicyclo[4.2.0]octan-2-yl)methyl)-4-methoxy-1-(((S)-oxetan-2-yl)methyl)-1H-benzo[d]imidazole-6-carboxylic acid], the IC50 in assay [2] was over 100000 nM.
Still for that read-out and setting: the same measure for `COc1cc(C(=O)O)cc2c1nc(CN1CCN(c3cccc4c3O[C@@](C)(c3ccc(Cl)cn3)O4)[C@@H]3CC[C@@H]31)n2C[C@@H]1CCO1` (single isomer, unassigned) [Example 2a, 2-((1R*,6S*)-5-(R*)-2-(5-Chloropyridin-2-yl)-2-methylbenzo[d][1,3]dioxol-4-yl)-2,5-diazabicyclo[4.2.0]octan-2-yl)methyl)-4-methoxy-1-(((S)-oxetan-2-yl)methyl)-1H-benzo[d]imidazole-6-carboxylic acid]: over 100000 nM; for `COc1cc(C(=O)O)cc2c1nc(CN1CCN(c3cccc4c3O[C@@](C)(c3ccc(Cl)cn3)O4)[C@@H]3CC[C@@H]31)n2C[C@@H]1CCO1` (single isomer, unassigned) [Example 2d, 2-((1R*,6S*)-5-(R*)-2-(5-Chloropyridin-2-yl)-2-methylbenzo[d][1,3]dioxol-4-yl)-2,5-diazabicyclo[4.2.0]octan-2-yl)methyl)-4-methoxy-1-(((S)-oxetan-2-yl)methyl)-1H-benzo[d]imidazole-6-carboxylic acid]: over 100000 nM.
Turning to `C[C@]1(c2ccc(Cl)cn2)Oc2cccc(N3CCN(Cc4nc5c(F)cc(C(=O)O)cc5n4CC4(CC#N)CC4)[C@H]4CC[C@@H]43)c2O1` (single isomer, unassigned) [Example 23b], the figures for the EC50 (on human GLP-1R receptor; in assay [1]) were 27 nM and 85 nM, respectively.
In the same order, the values of `C[C@]1(c2ccc(Cl)cn2)Oc2cccc(N3CCN(Cc4nc5c(F)cc(C(=O)O)cc5n4CC4(CC#N)CC4)[C@H]4CC[C@@H]43)c2O1` (single isomer, unassigned) [Example 23c] are 140 nM and 360 nM.
In the same order, the values of `COc1cc(C(=O)O)cc2c1nc(CN1CCN(c3cccc4c3O[C@@](C)(c3ccc(Cl)cn3)O4)[C@H]3CC[C@@H]31)n2CC1(C#N)CC1` (single isomer, unassigned) [Example 25a] are 130 nM and 260 nM.
The matching figures for `C[C@]1(c2ccc(Cl)cc2F)Oc2cccc(N3CCN(Cc4nc5c(F)cc(C(=O)O)cc5n4C[C@@H]4CCO4)[C@H]4CC[C@H]43)c2O1` (relative stereo) [Example 9d, 2-((1R*,6S*)-5-(R*)-2-(4-Chloro-2-fluorophenyl)-2-methylbenzo[d][1,3]dioxol-4-yl)-2,5-diazabicyclo[4.2.0]octan-2-yl)methyl)-4-fluoro-1-(((S)-oxetan-2-yl)methyl)-1H-benzo[d]imidazole-6-carboxylic acid]: 2.3 nM and 4.3 nM.
For the molecule `COc1cc(C(=O)O)cc2c1nc(CN1CCN(c3cccc4c3O[C@@](C)(c3ccc(Cl)cn3)O4)[C@@H]3CC[C@@H]31)n2C[C@@H]1CCCO1` (single isomer, unassigned) [Example 8d], the results for the concentration giving a half-maximal response (EC50) (at human GLP-1R receptor; in assay [1]) were 93 nM and 370 nM, respectively.

What is called EC50 is the midpoint of the concentration-response curve. The low end stands for higher potency in that assay, the high end for lower potency in that assay. As usually defined, the IC50 is the concentration needed to halve the response being measured.
